Residues, ends and D or L forms follow the SMILES beside them.
What was measured:
[1] = target: T1, TXNL4B (Homo sapiens, UniProt Q9NX01); assay: nHU-MS peptide bait, prey TXNL4B
T1 sequence (Q9NX01 1-149): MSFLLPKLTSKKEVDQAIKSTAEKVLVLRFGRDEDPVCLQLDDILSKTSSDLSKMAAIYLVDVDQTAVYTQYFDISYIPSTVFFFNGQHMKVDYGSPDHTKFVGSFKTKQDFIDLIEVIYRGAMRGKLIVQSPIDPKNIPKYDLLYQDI

[2] = target: T2, TXNRD3 (Homo sapiens, UniProt Q86VQ6); assay: nHU-MS peptide bait, prey TXNRD3
T2 sequence (Q86VQ6 1-643): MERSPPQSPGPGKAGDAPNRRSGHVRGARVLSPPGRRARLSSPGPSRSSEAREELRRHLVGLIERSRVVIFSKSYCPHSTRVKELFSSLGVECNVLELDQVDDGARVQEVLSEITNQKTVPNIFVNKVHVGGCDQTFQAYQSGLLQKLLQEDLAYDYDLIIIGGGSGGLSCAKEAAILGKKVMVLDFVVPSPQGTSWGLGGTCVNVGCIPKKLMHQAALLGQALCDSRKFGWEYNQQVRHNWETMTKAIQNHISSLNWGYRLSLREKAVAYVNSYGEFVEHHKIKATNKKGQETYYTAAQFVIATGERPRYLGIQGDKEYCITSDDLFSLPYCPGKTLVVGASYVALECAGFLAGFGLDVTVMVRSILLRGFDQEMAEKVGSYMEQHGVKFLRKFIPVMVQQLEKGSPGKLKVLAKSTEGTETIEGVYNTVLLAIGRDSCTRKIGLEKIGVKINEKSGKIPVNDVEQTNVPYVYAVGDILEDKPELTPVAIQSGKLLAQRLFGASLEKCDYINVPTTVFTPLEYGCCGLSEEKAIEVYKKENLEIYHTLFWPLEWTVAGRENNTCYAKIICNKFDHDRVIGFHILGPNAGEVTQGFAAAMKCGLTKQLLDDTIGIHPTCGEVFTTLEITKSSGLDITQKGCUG

[3] = target: T3, ASXL2 (Homo sapiens, UniProt Q76L83); assay: nHU-MS peptide bait, prey ASXL2
T3 sequence (Q76L83 1-1435): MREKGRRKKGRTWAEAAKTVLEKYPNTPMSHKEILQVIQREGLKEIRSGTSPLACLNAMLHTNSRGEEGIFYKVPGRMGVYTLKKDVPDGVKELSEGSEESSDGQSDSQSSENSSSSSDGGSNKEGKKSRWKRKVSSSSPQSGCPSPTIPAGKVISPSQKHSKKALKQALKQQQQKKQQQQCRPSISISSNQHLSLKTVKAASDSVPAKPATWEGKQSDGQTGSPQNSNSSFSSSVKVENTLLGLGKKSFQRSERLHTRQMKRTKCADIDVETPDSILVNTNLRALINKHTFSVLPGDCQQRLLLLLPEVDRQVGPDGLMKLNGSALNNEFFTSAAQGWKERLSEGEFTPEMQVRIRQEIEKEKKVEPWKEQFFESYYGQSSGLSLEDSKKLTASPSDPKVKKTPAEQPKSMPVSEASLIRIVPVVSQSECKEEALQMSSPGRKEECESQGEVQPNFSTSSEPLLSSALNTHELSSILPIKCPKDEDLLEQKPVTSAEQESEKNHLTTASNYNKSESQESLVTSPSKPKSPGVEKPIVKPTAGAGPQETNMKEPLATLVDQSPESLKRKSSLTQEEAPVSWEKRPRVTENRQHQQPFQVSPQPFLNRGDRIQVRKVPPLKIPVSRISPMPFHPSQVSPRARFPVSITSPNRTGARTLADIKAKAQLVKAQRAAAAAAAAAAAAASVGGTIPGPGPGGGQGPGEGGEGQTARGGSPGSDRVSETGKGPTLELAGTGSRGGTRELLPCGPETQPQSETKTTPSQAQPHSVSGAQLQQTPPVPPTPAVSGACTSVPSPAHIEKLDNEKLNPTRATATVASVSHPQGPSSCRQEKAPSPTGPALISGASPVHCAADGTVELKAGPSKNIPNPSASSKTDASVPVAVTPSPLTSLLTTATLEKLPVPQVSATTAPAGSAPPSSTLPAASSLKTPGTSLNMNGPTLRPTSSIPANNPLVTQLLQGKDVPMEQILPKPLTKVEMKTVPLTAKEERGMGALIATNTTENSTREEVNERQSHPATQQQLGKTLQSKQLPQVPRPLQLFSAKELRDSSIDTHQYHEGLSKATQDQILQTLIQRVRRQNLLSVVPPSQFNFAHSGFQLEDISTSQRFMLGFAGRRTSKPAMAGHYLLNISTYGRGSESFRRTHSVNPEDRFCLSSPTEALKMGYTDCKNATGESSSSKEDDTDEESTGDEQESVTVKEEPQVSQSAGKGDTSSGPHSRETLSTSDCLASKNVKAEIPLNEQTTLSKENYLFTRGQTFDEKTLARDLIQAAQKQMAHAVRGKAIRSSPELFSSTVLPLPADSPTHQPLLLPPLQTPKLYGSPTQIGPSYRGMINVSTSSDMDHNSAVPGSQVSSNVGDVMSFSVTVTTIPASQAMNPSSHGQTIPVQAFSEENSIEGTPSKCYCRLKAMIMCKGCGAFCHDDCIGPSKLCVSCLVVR

[4] = target: TMA7 (Homo sapiens, UniProt Q9Y2S6); assay: nHU-MS peptide bait, prey TMA7
Chain of TMA7 (Q9Y2S6 whole entry): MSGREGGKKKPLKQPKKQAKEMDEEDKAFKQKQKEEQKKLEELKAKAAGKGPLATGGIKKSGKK

[5] = target: T4, UBE2N (Homo sapiens, UniProt P61088); assay: nHU-MS peptide bait, prey UBE2N
T4 sequence (P61088 1-152): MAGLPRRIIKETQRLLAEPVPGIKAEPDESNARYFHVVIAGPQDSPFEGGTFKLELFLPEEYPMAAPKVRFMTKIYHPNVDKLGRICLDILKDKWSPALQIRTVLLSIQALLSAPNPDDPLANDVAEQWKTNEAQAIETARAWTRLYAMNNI

[6] = target: T5, EHD4 (Homo sapiens, UniProt Q9H223); assay: nHU-MS peptide bait, prey EHD4
T5 sequence (Q9H223 1-541): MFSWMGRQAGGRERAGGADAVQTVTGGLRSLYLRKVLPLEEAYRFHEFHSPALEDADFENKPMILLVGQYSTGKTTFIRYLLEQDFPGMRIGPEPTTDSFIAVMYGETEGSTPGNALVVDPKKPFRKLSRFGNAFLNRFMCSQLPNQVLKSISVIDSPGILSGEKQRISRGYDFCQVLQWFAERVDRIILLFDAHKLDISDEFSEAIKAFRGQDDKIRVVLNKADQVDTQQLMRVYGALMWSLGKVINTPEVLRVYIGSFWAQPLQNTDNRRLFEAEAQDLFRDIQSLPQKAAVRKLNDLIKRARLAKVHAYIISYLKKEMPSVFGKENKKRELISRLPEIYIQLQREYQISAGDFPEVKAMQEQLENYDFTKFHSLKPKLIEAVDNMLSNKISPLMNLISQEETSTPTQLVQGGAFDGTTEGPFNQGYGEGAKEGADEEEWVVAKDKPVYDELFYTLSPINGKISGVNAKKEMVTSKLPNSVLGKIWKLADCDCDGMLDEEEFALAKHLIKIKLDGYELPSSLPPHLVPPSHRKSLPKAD

[7] = target: GNB4 (Homo sapiens, UniProt Q9HAV0); assay: nHU-MS peptide bait, prey GNB4
Chain of GNB4 (Q9HAV0 2-340 limits assumed): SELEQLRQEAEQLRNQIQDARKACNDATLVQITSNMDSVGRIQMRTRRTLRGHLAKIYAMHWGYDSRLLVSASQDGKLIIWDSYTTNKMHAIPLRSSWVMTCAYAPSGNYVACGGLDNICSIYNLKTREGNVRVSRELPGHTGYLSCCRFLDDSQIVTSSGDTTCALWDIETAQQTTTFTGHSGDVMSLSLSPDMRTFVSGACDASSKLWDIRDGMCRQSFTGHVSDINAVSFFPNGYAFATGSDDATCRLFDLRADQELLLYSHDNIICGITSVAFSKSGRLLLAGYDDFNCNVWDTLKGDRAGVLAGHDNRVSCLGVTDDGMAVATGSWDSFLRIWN
Chain of GNB4 (P59768 2-68 partner limits assumed): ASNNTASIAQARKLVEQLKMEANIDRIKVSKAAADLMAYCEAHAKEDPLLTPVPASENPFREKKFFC

[8] = target: T6, GYPC (Homo sapiens, UniProt P04921); assay: nHU-MS peptide bait, prey GYPC
T6 sequence (P04921 1-128): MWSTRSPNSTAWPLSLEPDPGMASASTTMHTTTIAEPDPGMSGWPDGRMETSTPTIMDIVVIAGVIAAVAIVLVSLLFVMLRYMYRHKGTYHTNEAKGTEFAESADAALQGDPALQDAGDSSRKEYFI

Kd [4] [µM] | BI ([4]; prey TMA7, MS7_Varjosalo) | Kd [5] [µM] | BI ([5]; prey UBE2N, MS4_Varjosalo) | Kd [6] [µM] | BI ([6]; prey EHD4, MS4_Varjosalo) | Kd [7] [µM] | BI ([7]; prey GNB4, MS7_Varjosalo) | Kd [8] [µM] | BI ([8]; prey GYPC, MS4_Varjosalo) | Structure (SMILES) | Kd [1] [µM] | BI ([1]; prey TXNL4B, MS7_Varjosalo) | log2FC ([1]; prey TXNL4B, MS7_Varjosalo) | Kd [2] [µM] | BI ([2]; prey TXNRD3, MS7_Varjosalo) | log2FC ([2]; prey TXNRD3, MS7_Varjosalo) | Kd [3] [µM] | BI ([3]; prey ASXL2, MS7_Varjosalo) | log2FC ([3]; prey ASXL2, MS7_Varjosalo)
 |  |  |  |  |  |  |  |  |  | CC[C@H](C)[C@H](NC(=O)[C@H](CC(N)=O)NC(=O)[C@@H](NC(=O)[C@H](CCC(N)=O)NC(=O)[C@@H]1CCCN1C(=O)[C@@H](NC(=O)[C@H](CCC(N)=O)NC(=O)[C@H](CCCNC(=N)N)NC(=O)CCCCCNC(=O)CCCC[C@@H]1SC[C@@H]2NC(=O)N[C@@H]21)[C@@H](C)O)C(C)C)C(=O)N[C@@H](CC(N)=O)C(=O)N1CCC[C@H]1C(=O)N[C@@H](Cc1ccccc1)C(=O)N[C@H](C(=O)N1CCC[C@H]1C(=O)N[C@@H](CC(=O)O)C(=O)N[C@@H](CO)C(=O)N[C@@H](CC(C)C)C(=O)N[C@@H](CC(C)C)C(=O)N[C@@H](CC(C)C)C(=O)N[C@@H](Cc1c[nH]cn1)C(=O)N[C@@H](CO)C(N)=O)[C@@H](C)O [WEE1] (HELM PEPTIDE1{[O=C1N[C@H]2[C@H](CS[C@H]2CCCCC(=O)[*:2])N1].[O=C(CCCCCN[*:1])[*:2]].R.Q.T.P.Q.V.N.I.N.P.F.T.P.D.S.L.L.L.H.S.[am]}$$$$V2.0) | 7.39 | 0.575 | -1.234 | 6.85 | 0.5933 | -1.298 | 5.55 | 0.643 | -1.486
13.4 | 0.4275 | 20.8 | 0.3252 | 18.9 | 0.3455 | 12.7 | 0.4407 | 18.6 | 0.35 | CC(C)[C@H](NC(=O)[C@H](CCCCN)NC(=O)[C@H](Cc1ccccc1)NC(=O)[C@@H]1CCCN1C(=O)[C@H](CC(N)=O)NC(=O)[C@@H](NC(=O)[C@H](CCCNC(=N)N)NC(=O)CNC(=O)[C@H](CCC(N)=O)NC(=O)[C@H](CO)NC(=O)[C@@H](N)CO)C(C)C)C(=O)N[C@@H](CO)C(=O)N[C@@H](C)C(=O)N[C@@H](CO)C(=O)N[C@@H](CO)C(=O)N[C@@H](CCCCN)C(=O)N[C@@H](CCC(=O)O)C(=O)N1CCC[C@H]1C(=O)N[C@@H](C)C(N)=O [WDHD1 906-924] (H-SSQGRVNPFKVSASSKEPA-NH2) |  |  |  |  |  |  |  |  | 
